Assay results as given in patent publication US10792300B2, “Dendritic cell immune receptor activator, method for activating dendritic cell immune receptor, osteoclast formation inhibitor, method for inhibiting osteoclast formation, dendritic cell differentiation/proliferation inhibitor, method for inhibiting dendritic cell differentiation/proliferation, …” (TOKYO UNIVERSITY OF SCIENCE FOUNDATION, priority 2014, dated 2020).

T1: DCIR-Fc (Mus musculus, UniProt Q9QZ15)
T1 construct: covering the extracellular domain (EC) from 70 to 238 at the amino acid level; made in house; host or cells: HEK293T cells
T1 sequence (Q9QZ15 70-238): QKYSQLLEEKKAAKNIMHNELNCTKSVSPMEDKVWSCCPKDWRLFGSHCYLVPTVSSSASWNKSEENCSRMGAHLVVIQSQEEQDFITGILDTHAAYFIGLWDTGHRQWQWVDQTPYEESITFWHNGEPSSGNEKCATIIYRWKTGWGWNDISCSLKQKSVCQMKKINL


Assays:
DCIR-Fc [1] = biological target: T1, DCIR-Fc; test: Glycan microarray with evanescent-field fluorescence-assisted detection: binding of DCIR-Fc to glycan probes; design: species or system murine; conditions: glycan microarray, DCIR-Fc
Description: (§1) Murine DCIR cDNA, covering the extracellular domain (EC) from 70 to 238 at the amino acid level, was subcloned into pFUSE-hIgG2-Fc2 vector (Invitrogen) at Bgl II site. cDNA coding the extracellular domain was generated with a primer set; sense 5′-[…]-3′ (sequence No. 11) and anti-sense 5′-[…]-3′ (sequence No. 12). Site-directed mutations of the CRD domain, in which glutamic acid and serine were replaced to alanine, were established by KOD-Plus-Mutagenesis Kit (TOYOBO). The following primer set was used for the mutagenesis: E197A sense 5′-[…]-3′(sequence No. 13), anti-sense 5′-[…]-3′(sequence No. 14); S199A sense 5′-[…]-3′(sequence No. 15), anti-sense 5′-[…]-3′ (sequence No. 16); E197A/S199A sense 5′-[…]-3′ (sequence No. 17), anti-sense 5′-[…]-3′(sequence No. 18).
(§2) The plasmids were transferred into HEK293T cells by Lipofectamine LTX (Invitrogen), and the cells were incubated in Opti-MEM (Invitrogen) for 15 days and the medium was changed every 3 days. The Fc-chimeric proteins were purified from collected supernatant by affinity chromatography on Protein A-Sepharose (GE Healthcare UK)
(§3) The glycan-protein interaction was detected in a glycan microarray with an evanescent-field fluorescence-assisted detection system. Briefly, glycan probes, including glycoproteins and glycoside-polyacrylamide (PAA), were immobilized on microarray-grade epoxy-activated glass slides (Schott AG) in triplicate spots using a noncontact microarray printing robot, MicroSys 4000 (Genomic Solutions). The glass slides were incubated at 25° C. for 3 hours and washed with a reaction buffer consisting of 25 mM Tris HCl (pH 7.4) containing 0.8% NaCl, 1% (v/v) Triton-X, 1 mM MnCl2, and 1 mM CaCl2 to remove […], followed by blocking in TBS (25 mM Tris-HCl (pH 7.4) with 0.8% NaCl and 1% BSA) at 20° C. for 1 hour. A protein complex of DCIR-Fc, mutant DCIR-Fc, or Fc with Cy3-labelled anti-human Fc antibodies was formed in a reaction buffer at RT by 20 minutes kept in the dark.
(§4) The protein complex was applied to a glass slide at 100 μl per chamber, and was incubated at 20° C. for 3 hours. Without washing, the binding was detected with an evanescent-field activated fluorescence scanner, SC-Profiler (GP Bioscience), and the data was analyzed by the Array Pro analyzer Ver. 4.5 (Media Cybernetics, Inc.) Subtracted raw intensity from background intensity is net intensity, which is presented as the average±s.d. of triplicate spots.

DCIR-Fc [2] = test: as above; design: species or system murine; conditions: for binding of mutant DCIR-Fc (CRD mutants) to the glycan: glycan microarray; for Ca2+ and CRD dependency of DCIR-Fc binding: with or without EDTA, CRD mutants
Description: as §1, §2, §3, §4

[3] = tested on: Flt3L-induced dendritic cells (DCs); test: Pro-inflammatory cytokine production by LPS-activated Flt3L-induced dendritic cells (ELISA); type: cell-based, mouse; conditions: 1 μg/ml NA2, 24 hours, versus without NA2
Description: Flt3L-induced dendritic cells (DCs) were prepared by the following process. Bone marrow cells were isolated from femurs of wild-type mice. Red blood cells were destroyed in a hemolysis buffer (consisting of 140 mM NH4Cl and 17 mM Tris-HCl, pH 7.2) for 10 minutes on ice. The cells were seeded at 1 million cells per well in 24-well plates in the presence of 100 ng/ml of recombinant human Flt3L in a medium containing 10% FBS, antibiotic mixtures, essential amino acids and 2-mercaptoethanol. At day 4, 100 ng/ml of recombinant human Flt3L (Milteny) was added in each well and further cultured for additional 4 days. At day 8, the cells were harvested and re-seeded at 500,000 cells per well in 96-well plates.
The DCs thus obtained were activated with agonistic reagents (LPS) with or without 1 μg/ml of a NA2 for 24 hours. The supernatants were collected and the amounts of pro-inflammatory cytokines (IL-6 and p40) were determined by ELISA. As a result, the amount of pro-inflammatory cytokines were smaller when the DCs were stimulated by LPS in the presence of a NA2 than without the same (FIG. 50). In FIG. 50, the left-side two bars represent the amounts of pro-inflammatory cytokines without LPS stimulation, and the right-side two bars represent the amounts of pro-inflammatory cytokines with LPS stimulation, where the black bars represent the cases in the presence of a NA2.

wild-type BMMs [4] = test: Osteoclast formation by TRAP staining, wild-type BMMs with M-CSF and RANKL; type: cell-based, mouse
Description: To form M-CSF-dependent bone marrow-derived macrophages, BM cells were isolated by flushing the bone marrow cavity of femurs with α-minimal essential medium (α-MEM) (Gibco, trade name, Life Technologies), supplemented with penicillin (100 units/ml), streptomycin (100 μg/ml) and 10% heat-inactivated fetal bovine serum. Red blood cells were destroyed in a hemolysis buffer (consisting of 140 mM NH4Cl and 17 mM Tris-HCl, pH 7.2) for 10 minutes on ice, and the treated cells were pre-incubated in a 100 mm dish for 1 hour. The non-adherent cells (hematopoietic cells) were harvested and seeded at 50,000 cells per well in 96-well plates in the presence of 20 ng/ml of recombinant human M-CSF (R&D Systems) for 2 days. The cells proliferated in response to M-CSF were defined as BMMs. […]
Adherent cells were fixed in 10% formalin for 3 minutes, followed by further fixation in a fixative buffer consisting of 50% ethanol and 50% acetone for 1 minute. […] TRAP-positive cells with more than 3 or 10 nuclei were counted as multinucleated osteoclasts.
Wild-type and Dcir−/− BMMs were induced to differentiate osteoclasts in the presence of M-CSF and RANKL. […] The number of osteoclasts was determined by TRAP staining. […] Cell lysates were analyzed by western blotting to detect the phosphorylation levels of signal components. […]

wild-type BMMs [5] = test: Western blotting of M-CSF- and RANKL-mediated signals, wild-type BMMs; type: cell-based, mouse; conditions: wild-type BMMs pre-treated with NA2
Description: (§5) For western blotting of M-CSF- and RANKL-mediated signals, BMMs were re-plated in a 12-well plate at 250,000 cells per well in the presence of 5 ng/ml of M-CSF. 24 hours after the culture, the BMMs were left in a serum-free medium without M-CSF for 6 hours before stimulation. The cells were activated with 20 ng/ml of M-CSF or 100 ng/ml of RANKL for predetermined periods. […]
(§6) Wild-type and Dcir−/− BMMs were induced to differentiate osteoclasts in the presence of M-CSF and RANKL. […] The number of osteoclasts was determined by TRAP staining. […] Cell lysates were analyzed by western blotting to detect the phosphorylation levels of signal components.

Dcir−/− BMMs = test: Western blotting of M-CSF- and RANKL-mediated signals, Dcir−/− BMMs; type: cell-based, mouse; conditions: FIG. 49: Dcir−/− BMMs pre-treated with NA2 1 μg/ml for 6 hours
Description: as §5, §6

[6] = tested on: primary murine osteoblasts; test: Effect of IFN-γ on osteoblast formation (alizarin red staining, osteogenic gene expression); type: cell-based; conditions: exogenous addition, dose-dependent
Description: Calvarial cells were prepared by sequential digestion followed by a standard method. Briefly, calvavria from 1 to 2-day old neonates were surgically isolated and adherent mesenchymal tissues were trimmed. The neonatal calvaria underwent a first digestion with a degrading solution containing 0.1% collagenase (Wako Pure Chemical Industries) and 0.1% dispase (Roche Diagnostics Japan) for 10 minutes at 37° C. with agitation. The solution was discarded to remove debris, and the remaining calvaria were further digested by the same degrading solution for 1 hour at 37° C. The cells isolated from the serial digestions were suspended in an a-MEM containing 10% FCS, penicillin (100 units/ml) and streptomycin (100 μg/ml), and plated at the concentration of 200,000 cells/well in 12-well plates. Two days after the culture, the cells were incubated in an osteogenic medium (α-MEM supplemented with 10% FBS, 50 μg/ml ascorbic acid (Sigma-Aldrich), 10 mM β-glycerophosphate (Calbiochem) and antibiotics) for 14 days or 21 days, with the medium replaced every 3 days for the entire duration.
Murine osteoblasts were cultured and differentiated according to the protocol as mentioned above. […]
The mineralization formation of osteoblastic cells was detected by the von Kossa method and staining with alizarin red S (sodium alizarin sulphonate). […]

| Molecule | binding of DCIR-Fc to the glycan (DCIR-Fc [1]) | binding of mutant DCIR-Fc (CRD mutants) to the glycan (DCIR-Fc [2]) | Ca2+ and CRD dependency of DCIR-Fc binding (DCIR-Fc [2]) | amount of pro-inflammatory cytokine IL-6 [3] | amount of pro-inflammatory cytokine p40 [3] | osteoclast formation in wild-type BMMs (wild-type BMMs [4]) | Akt phosphorylation in response to M-CSF and RANKL (wild-type BMMs [5]) | MAPKs and IκBα upon M-CSF and RANKL stimuli (Dcir−/− BMMs) | alizarin red staining (ability of osteoblasts to mineralize) [6] | expression of osteogenic genes ([6]; day 14 culture) |
| --- | --- | --- | --- | --- | --- | --- | --- | --- | --- | --- |
| heparin | bound | remained bound | Ca^2+-dependent | – | – | – | – | – | – | – |
| asialo-biantennary N-glycan [NA2] | bound strongly | – | Ca^2+ and CRD were required | smaller | smaller | significant decrease | decrease | no effect | – | – |
| asialo-transferrin: glycoprotein probe on the glycan microarray; transferrin without sialic acid | bound | no binding | Ca^2+-dependent | – | – | – | – | – | – | – |
| IFN-γ: recombinant murine IFN-γ (PeproTech) (protein, UniProt P01580 23-155, looked up) Interferon gamma: HGTVIESLESLNNYFNSSGIDVEEKSLFLDIWRNWQKDGDMKILQSQIISFYLRLFEVLKDNQAISNNISVIESHLITTFFSNSKAKKDAFMSIAKFEVNNPQVQRQAFNELIRVVHQLLPESSLRKRKRSRC | – | – | – | – | – | – | – | – | augmented | augmented |
